Reference: paper PMC8704606, “The Artemiside-Artemisox-Artemisone-M1 Tetrad: Efficacies against Blood Stage P. falciparum Parasites, DMPK Properties, and the Case for Artemiside” (Pharmaceutics, 2021)
Where two headings read alike, the source gives them in different places.

Columns and labels:
7G8 (CQ resistant) = tested on: 7G8 (CQ resistant); set-up: method as in ref S2; details: [3H]-hypoxanthine assay; ref S2; read-out: Antimalarial activities IC50 7G8; cited from earlier work
[1] = tested on: Chinese hamster ovary (CHO) cells; set-up: method as in PMID 29866868, PMID 31998692; details: other cell lines including CHO cells; read-out: EC50 cytotoxicity; cited from earlier work
[2] = tested on: P. falciparum asexual blood stage artemisinin-resistant clone PL08-009 (5C) carrying the PfKI3 C580Y mutation; set-up: method as in ref S3; details: ref S3, cited from earlier work
D6 (CQ sensitive) = tested on: D6 (CQ sensitive); set-up: method as in ref S2; details: [3H]-hypoxanthine assay; ref S2; read-out: Antimalarial activities IC50 D6; cited from earlier work
[3] = tested on: asexual blood stages of Pf W2 (drug resistant); set-up: method as in PMID 29866868, PMID 31998692; details: cited from earlier work
[4] = tested on: asexual blood stages of Pf NF54 (drug sensitive); set-up: method as in PMID 29866868, PMID 31998692; details: asexual blood stage Pf NF54, CQ sensitive; SYBR Green I; ± SEM; cited from earlier work
W2 (CQ resistant) = tested on: W2 (CQ resistant); set-up: method as in ref S2; details: [3H]-hypoxanthine assay; ref S2; read-out: Antimalarial activities IC50 W2; cited from earlier work
P. falciparum W2 = tested on: P. falciparum W2; set-up: method as in ref S3; details: [3H]-hypoxanthine assay; ref S3; cited from earlier work
[5] = tested on: fetal rat brain stem cells; details: ref S4 (24), cited from earlier work
[6] = tested on: late-stage (LG) Pf NF54 gametocytes; set-up: method as in PMID 29866868; details: late-stage gametocytes >90% stages IV-V; 48 h incubation; ± SEM; cited from earlier work
TM-C2B = tested on: TM-C2B; set-up: method as in ref S2; details: [3H]-hypoxanthine assay; ref S2; read-out: Antimalarial activities IC50 TM-C2B; cited from earlier work
[7] = tested on: TM91-C235 (CQ and MFQ resistant); set-up: method as in ref S2; details: [3H]-hypoxanthine assay; ref S2; read-out: Antimalarial activities IC50 TM91-C235; cited from earlier work
[8] = tested on: asexual blood stages of Pf K1 (drug resistant); set-up: method as in PMID 29866868, PMID 31998692; details: cited from earlier work
[9] = tested on: early-stage (EG) Pf NF54 gametocytes; set-up: method as in PMID 29866868; details: early-stage gametocytes >95% stages II-III; 48 h incubation; ± SEM; cited from earlier work
[10] = tested on: P. falciparum asexual blood stage artemisinin-resistant clone ARC08-22 (4G) carrying the PfKI3 C580Y mutation; set-up: method as in ref S3; details: ref S3, cited from earlier work
[11] = tested on: TM93-C1088 (atovaquone and CQ resistant); set-up: method as in ref S2; details: [3H]-hypoxanthine assay; ref S2; read-out: Antimalarial activities IC50 TM93-C1088; cited from earlier work
[12] = set-up: method as in PMID 34097488; details: cited from earlier work
[13] = tested on: asexual blood stages of Pf W2 (drug resistant); assay: SYBR Green I proliferation assay, asexual blood stages, Pf W2; type: cell-based, Plasmodium falciparum
Experimental: (§1) Dose response curves are in Figures S1a–c and S2a–c in the Supplementary Material 1. Table 1 also includes the historical values for artemiside and artemisone obtained using the same assay.
(§2) All other assay conditions are as previously described. Compound working solutions were prepared from a 10 mM stock solution in 100% (vol/vol) dimethyl sulfoxide (DMSO, Sigma-Aldrich) in supplemented RPMI 1640 medium containing AlbuMAX II with a final DMSO concentration of 0.1% (vol/vol), previously determined to be nontoxic to blood stage asexual parasites and gametocytes. The dose-responses of the amino-artemisinins were assayed using a 2-fold serial drug dilution on in vitro 95% ring-stage parasites at 37 °C under 90% N2, 5% CO2, and 5% O2 atmospheric conditions, detecting SYBR green I fluorescence as the proliferative marker following a 96 h drug treatment (1% parasitemia and 1% hematocrit) using a GloMaxR-Multi+ Detection System (Promega). No drug washout steps were performed during drug incubation periods prior to the assays. Activity against the Pf drug-sensitive NF54 strain and the drug-resistant K1 (resistant to CQ, quinine, pyrimethamine, and cycloguanil) and W2 (resistant to CQ, quinine, pyrimethamine, and cycloguanil) strains was evaluated. Data analysis was performed using GraphPad Prism (version 6), intra-assay variability was monitored with Z-factors, and acceptable interassay reproducibility was determined from the percent coefficient of variation (CV).

[14] = Cytotoxicity (LDH assay) against HepG2 cells; type: cell-based; details: human, HepG2 cells (hepatocellular carcinoma)
Experimental: Cytotoxicity against mammalian hepatocellular carcinoma cells (HepG2 cells) was determined using the lactate dehydrogenase assay (LDH, Biovision Inc., Milpitas, CA, USA). […] Compound working solutions were prepared from 10 mM stock solutions (100% DMSO) in complete DMEM to a final DMSO (Sigma-Aldrich) conc. of <0.1% (vol/vol). […] Data analysis was performed using GraphPad Prism (version 6) software.

[15] = tested on: asexual blood stages of Pf NF54 (drug sensitive); assay: SYBR Green I proliferation assay, asexual blood stages, Pf NF54; type: cell-based, Plasmodium falciparum
Experimental: as §1, §2

[16] = tested on: early-stage (EG) Pf NF54 gametocytes; assay: Luciferase assay, early-stage gametocytes; type: cell-based, Plasmodium falciparum; details: Plasmodium falciparum, NF54, 48 h, early-stage gametocytes >95% stages II-III; 48 h incubation; ± SEM
Experimental: (§3) For screening artemisox and M1 against early- (EG) and late-stage (LG) gametocytes, the luciferase assay with transgenic NF54-pfs16-GFP-Luc and NF54-Mal8p1.16-GFP-Luc parasite lines was used. With this assay, stage-specificity of gametocytocidal action was established (Table 2). Dose-response curves are in Figures S1d,e and S2d in the Supplementary Material 1. […] As was observed previously for artemisone and artemiside, dose responses for artemisox and M1 could not be obtained at 48 h against late-stage gametocytes.
(§4) The same reference compounds with the exception of CQ were used for the early- and late-stage gametocyte assays. Gametocytocidal activity was determined using the transgenic NF54-pfs16-GFP-Luc and NF54-Mal8p1.16-GFP-Luc reporter lines. Compounds were initially screened for activity at a fixed drug concentration of 1 µM, with dose responses subsequently determined using 2-fold serial drug dilutions for 48 h against early-stage gametocytes (day 5 post-induction population, ≥95% stages II–III) and 10-fold serial drug dilutions for 48 h or 72 h against late-stage gametocytes (day 10 post-induction population, ≥90% late-stage [stages IV–V]) (2 to 3% gametocytemia, 2% hematocrit) at 37 °C under 90% N2, 5% CO2, and 5% O2 [6]. No drug washout steps were performed during the drug incubation periods prior to the assays. In all cases, an interference assay was run in parallel to eliminate the possibility of false positives arising through compound interference with the luciferase readout.

[17] = tested on: asexual blood stages of Pf K1 (drug resistant); assay: SYBR Green I proliferation assay, asexual blood stages, Pf K1; type: cell-based, Plasmodium falciparum
Experimental: as §1, §2

[18] = tested on: late-stage (LG) Pf NF54 gametocytes; assay: Luciferase assay, late-stage gametocytes; type: cell-based, Plasmodium falciparum; details: fixed dose of 1 µM, 48 h incubation
Experimental: as §3, §4

HepG2 = details: cited from earlier work
P. berghei sporozoites = details: cited from earlier work
[19] = effect on the cytoskeleton on day 7

## C[C@H]1[C@@H](O)O[C@@H]2O[C@@]3(C)CC[C@H]4[C@H](C)CC[C@@H]1[C@@]24OO3 [DHA 2, Dihydroartemisinin]
7G8 (CQ resistant)
  IC50: 1.3 ± 0.2 nM
[1]
  EC50: 25200 nM
[2]; 36 h life cycle, PfKI3 C580Y
  IC50: 6.41 nM
  IC90: 10.7 nM
[2]
  RI = IC50 for PL08-09 (5C)/IC50 for W2: 1.4
D6 (CQ sensitive)
  IC50: 1.7 ± 0.4 nM
[3]; asexual blood stage Pf W2, multidrug resistant, SYBR Green I, ± SEM
  IC50: 1.74 ± 0.22 nM
[3]
  RI = IC50 W2/IC50 NF54: 0.7
[4]
  IC50: 2.51 ± 0.19 nM
W2 (CQ resistant)
  IC50: 2.2 ± 0.8 nM
P. falciparum W2
  IC50: 4.58 nM
  IC90: 10.3 nM
[5]; ATP levels 1 day after initial administration
  ATP IC50: 0.08 µg/mL
[5]; [19]
  Neurofilaments IC50: 0.01 µg/mL
  Neurofilaments NOEC: < 0.001 µg/mL
[5]; neuron-specific enolase activity, 7 days exposure
  Viability IC50: 5.0 µg/mL
[6]
  IC50: 33.7 ± 1.98 nM
TM-C2B
  IC50: 2 ± 0.7 nM
[7]
  IC50: 2.3 ± 0.7 nM
[8]; asexual blood stage Pf K1, multidrug resistant, SYBR Green I, ± SEM
  IC50: 1.51 ± 0.33 nM
[8]
  RI (resistance index) = IC50 K1/IC50 NF54: 0.6
[9]
  IC50: 43 ± 3.9 nM
[10]; 48 h life cycle, PfKI3 C580Y
  IC50: 6.68 nM
  IC90: 15.4 nM
[10]
  RI = IC50 for ARC08-22(4G)/IC50 for W2: 1.5
[11]
  IC50: 1.4 ± 0.4 nM

## C[C@H]1[C@H](N2C=CS(=O)(=O)CC2)O[C@@H]2O[C@@]3(C)CC[C@H]4[C@H](C)CC[C@@H]1[C@@]24OO3 [M1 8, M1]
7G8 (CQ resistant)
  IC50: 2.6 ± 0.8 nM
[12]
  fold greater human microsomal half-life than artemisone: > 15 fold
[12]; listed as M1
  fold greater human microsomal half-life than artemisone: ≥ 15 fold
[13]
  RI = IC50 W2/IC50 NF54: 0.86
[13]; Plasmodium falciparum, asexual blood stage Pf W2, multidrug resistant, SYBR Green I, 96 h, ± SEM
  IC50: 2.26 ± 0.08 nM
D6 (CQ sensitive)
  IC50: 4.7 ± 0.2 nM
[14]
  IC50 at 24 h: > 50000 nM
W2 (CQ resistant)
  IC50: 6.6 ± 0.4 nM
[15]; Plasmodium falciparum, NF54, 96 h, asexual blood stage Pf NF54, CQ sensitive, SYBR Green I, 96 h, ± SEM, read-out: IC50 NF54
  IC50: 2.63 ± 0.24 nM
[15]; Plasmodium falciparum, NF54, summary over NF54, K1 and W2 strains, read-out: IC50 against asexual Pf blood stage parasites
  IC50: ~2 nM
[15]; summary over NF54, K1 and W2 strains, read-out: IC50 against asexual Pf blood stage parasites
  IC50: 1.5 to 2.6 nM
[16]
  IC50: 13.4 ± 2.7 nM
TM-C2B
  IC50: 8.6 ± 8.2 nM
[7]
  IC50: 5 ± 0.6 nM
[17]
  RI (resistance index) = IC50 K1/IC50 NF54: 0.57
[17]; Plasmodium falciparum, asexual blood stage Pf K1, multidrug resistant, SYBR Green I, 96 h, ± SEM
  IC50: 1.5 ± 0.23 nM
[18]
  inhibition of LG viability: > 90%
[11]
  IC50: 2.5 ± 0.4 nM

## OC(c1cc(C(F)(F)F)nc2c(C(F)(F)F)cccc12)C1CCCCN1 (stereo not shown) [Mefloquine]
7G8 (CQ resistant)
  IC50: 5.4 ± 1.7 nM
TM-C2B
  IC50: 130 ± 51 nM
[7]
  IC50: 107 ± 41 nM
[11]
  IC50: 16 ± 5 nM

## CN(C)c1ccc2nc3ccc(=[N+](C)C)cc-3sc2c1 [Methylene Blue]
[4]
  IC50: 5 ± 0.8 nM
[6]
  IC50: 143 ± 16.7 nM
[9]
  IC50: 95 ± 11.3 nM

## COc1ccc(C[C@H](N)C(=O)N[C@H]2[C@@H](O)[C@H](n3cnc4c(N(C)C)ncnc43)O[C@@H]2CO)cc1 [Puromycin, reference compound]
HepG2
  EC50: 117 nM
HepG2; ref S3
  SI = EC50 HepG2/IC50 P. berghei sporozoites: 5.15
P. berghei sporozoites; at 5 µM, ref S3
  Maximum inhibition % P. berghei sporozoites: 110±4.24%
P. berghei sporozoites; luciferase-expressing P. berghei ANKA GFP-Luc-SMcon sporozoites in HepG2 cells, 48 h, ± SD, ref S3 (7)
  IC50: 22.7 ± 4.53 nM
